Reference: article PMC7724566, “Prospects for Clinical Development of Stat5 Inhibitor IST5-002: High Transcriptomic Specificity in Prostate Cancer and Low Toxicity In Vivo” (Cancers, 2020)

Experiments:
panel of 54 kinases = assay: Cell-free kinase panels, overall; type: biochemical; details: 1 µM
Description: Given that IST5 suppresses phosphorylation of Stat5 in PC cells, it is possible that IST5 inhibits the kinase(s) responsible for Stat5 phosphorylation and activation in PC cells. To evaluate if IST5 affects kinase activity in cancer cells, we tested kinase inhibitory activity of IST5 in two custom-tailored panels including 54 relevant kinases (Table 1), including Jak1, Jak2, Jak3, Tyk2, Abl1, Abl2, Lck, Fyn, Src and TrkB/C. In addition, we further tested if IST5 inhibits tyrosine phosphorylation of Jak1, Jak2, Jak3 or Tyk2 using a cell-based assay (Figure 5D), where phosphorylation of the kinase is indicative of enzymatic kinase activity. DU145 and CWR22Rv1 cells were treated with IST5 (6 µM) for 6 h followed by immunoprecipitation of Jak1, Jak2, Jak3 and Tyk2 and immunoblotting with anti-phospho-tyrosine antibody. […]
For Jak1, Jak2, Jak3 and Tyk2, a radiometric filtration binding assay was conducted by Reaction Biologicals (Malvern, PA, USA) (Table 1). […] For evaluation of the activity of the other kinases, the Kinase Seeker Technology was utilized (Luceome Biotechnologies, Tucson, AZ, USA), which is a luminescence-based cell-free assay. […] The competitive displacement of the probe by an inhibitor is measured by a change in luminescence signal. […]

athymic nude mice = assay: Acute toxicity study, plasma biochemistry; type: in vivo; details: for ALT / AST / Albumin / Alk.Ptase / BUN / Bile Acid / Chol / Globulin / TBIL: plasma
Procedure: The acute toxicity study of the compound IST5 was carried out in athymic nude mice (8 weeks) (Crl:NU/NCr-Foxn1n) of either sex (n = 8/dose group, 4 of each sex). IST5 compound was administered once (0, 10, 30, and 100 mg/kg) via single intra-peritoneal (i.p.) injection, and the mice in the vehicle (0 mg/kg) group received each a single i.p. injection of 0.3% hydroxypropyl cellulose. Plasma samples were analyzed for liver (AST, […], alkaline phosphatase, total bilirubin, bile acid) and kidney functions (BUN, albumin, globulin and albumin-globulin ratio) (Marshfields Labs, WI, USA).
The following clinical chemistry parameters were measured: Aspartate aminotransferase (AST), alanine aminotransferase (ALT), sorbitol dehydrogenase (SDH), alkaline phosphatase (ALP), γ-glutamyltransferase (GGT), lactate dehydrogenase (LDH), bilirubin (TBIL), protein (TP), glucose (GLU), blood urea nitrogen (BUN), creatinine (CREAT), and electrolytes (Na, K, Cl, Ca, CO2).

[1] = system: chronic myeloid leukemia (CML) cells; design: method as in PMID 26026053; details: cited from earlier work

O=P(O)(O)OCC1OC(n2cnc3c(NCc4ccccc4)ncnc32)C(O)C1O (stereo not drawn) [IST5]
inhibitory activity against the kinases of Table 1 (panel of 54 kinases): no significant inhibitory activity
BW (athymic nude mice; single i.p. 10 mg/kg): 22.8 ± 0.79 g
ALT (athymic nude mice; single i.p. 10 mg/kg): 62.1 ± 11.0 U/L
AST (athymic nude mice; single i.p. 10 mg/kg): 284 ± 78.7 U/L
Albumin (athymic nude mice; single i.p. 10 mg/kg): 3.25 ± 0.01 g/dL
Alk.Ptase (athymic nude mice; single i.p. 10 mg/kg): 43.17 ± 3.5 U/L
BUN (athymic nude mice; single i.p. 10 mg/kg): 27.67 ± 1.4
Bile Acid (athymic nude mice; single i.p. 10 mg/kg): 0.88 ± 0.40 µmol/dL
Chol (athymic nude mice; single i.p. 10 mg/kg): 67.80 ± 5.0 mg/dL
Globulin (athymic nude mice; single i.p. 10 mg/kg): 1.4 ± 0.01
TBIL (athymic nude mice; single i.p. 10 mg/kg): 0.51 ± 0.10 mg/dL
BW (athymic nude mice; single i.p. 30 mg/kg): 21.9 ± 089 g
ALT (athymic nude mice; single i.p. 30 mg/kg): 100 ± 23.9 U/L
AST (athymic nude mice; single i.p. 30 mg/kg): 488 ± 168 U/L
Albumin (athymic nude mice; single i.p. 30 mg/kg): 4.16 ± 0.59 g/dL
Alk.Ptase (athymic nude mice; single i.p. 30 mg/kg): 57.0 ± 6.82 U/L
BUN (athymic nude mice; single i.p. 30 mg/kg): 29.6 ± 1.79
Bile Acid (athymic nude mice; single i.p. 30 mg/kg): 3.35 ± 2.87 µmol/dL
Chol (athymic nude mice; single i.p. 30 mg/kg): 182 ± 57.8 mg/dL
Globulin (athymic nude mice; single i.p. 30 mg/kg): 1.4 ± 0.08
TBIL (athymic nude mice; single i.p. 30 mg/kg): 1.16 ± 0.43 mg/dL
BW (athymic nude mice; single i.p. 100 mg/kg): 22.0 ± 0.97 g
HCT (athymic nude mice; single i.p. 100 mg/kg): 0.44 ± 0.01 L/L
ALT (athymic nude mice; single i.p. 100 mg/kg): 73.2 ± 15.4 U/L
AST (athymic nude mice; single i.p. 100 mg/kg): 377 ± 96.7 U/L
Albumin (athymic nude mice; single i.p. 100 mg/kg): 3.32 ± 0.15 g/dL
Alk.Ptase (athymic nude mice; single i.p. 100 mg/kg): 55.8 ± 5.42 U/L
BUN (athymic nude mice; single i.p. 100 mg/kg): 28.6 ± 1.14
Bile Acid (athymic nude mice; single i.p. 100 mg/kg): 2.52 ± 1.28 µmol/dL
Chol (athymic nude mice; single i.p. 100 mg/kg): 89.4 ± 5.91 mg/dL
Globulin (athymic nude mice; single i.p. 100 mg/kg): 1.28 ± 0.10
TBIL (athymic nude mice; single i.p. 100 mg/kg): 0.62 ± 0.09 mg/dL
efficacy in CML cells [1]: remarkable efficacy
